Assay results taken from ChEMBL document CHEMBL2169841, “A simple solid phase, peptide-based fluorescent assay for the efficient and universal screening of HRV 3C protease inhibitors” (Bioorg Med Chem Lett, 2012).
≈ marks a conversion by molar mass, not a printed value.

Experiments:
Parameters in all cases: species or system rhinovirus B14
[1] = Inhibition of human rhinovirus 14 recombinant N-terminal GST-tagged protease 3c expressed in Escherichia coli DH5alpha using LEVLFQGPSK(Fluoro)G as substrate after 1 hr by discontinuous heterogeneous fluorometric assay
[2] = Inhibition of human rhinovirus 14 recombinant N-terminal GST-tagged protease 3c expressed in Escherichia coli DH5alpha using Staphylococcus superantigen like protein 7-thioredoxin fusion protein as substrate after 1 hr by SDS-PAGE analysis
[3] = Inhibition of human rhinovirus 14 protease 3c by HPLC analysis

SMILES	IC50 [1] [µM]	IC50 [2] [µg/mL]	IC50 [3] [µg/mL]
C=CCC1=C(Br)C(=O)c2ccccc2C1=O	8.8		
CC(=O)CC1=C(Br)C(=O)c2ccccc2C1=O	62.7		
CC(O)CC1=C(Br)C(=O)c2ccccc2C1=O (configuration not stated)	92.5		
C[C@H]1CC2=C(C(=O)c3c(O)cc(O)cc3C2=O)[C@H](O)O1	53	14.1	13 (≈ 47.1 µM)
O=C1C=C(Br)C(=O)c2ccccc21 [2-Bromo-1,4-naphthoquinone]	4.2		
